# Test results reported in US4595698A, “Physiologically active substance, arphamenine and production thereof” (Zaidan Hojin Biseibutsu Kagaku Kenkyu Kai, priority 1982, dated 1986).
# Read-outs that look alike come from different tables or passages of the source.
# Columns and labels:
# [1] = test system: cell-mediated immunity (D.T.H. to picryl chloride); assay: D.T.H. to picryl chloride in mice bearing Ascites Sarcoma 180 tumor, Test Example 2 (2); format: in vivo, CDF1 mice; settings: for Increased thickness of auricles / T/C (%): Table 4, 6 times/day, Day 1 to Day 8; for T/C (%): control = 100
# Experimental: (2) D.T.H. to picryl chloride
# In mice bearing Ascites Sarcoma 180 tumor, the effect of arphamenine A on D.T.H. to picryl chloride as antigen was investigated. Thus, 10^6 cells of Ascites Sarcoma 180 were transplanted intraperitoneally into CDF1 mice (12-week-old, female, 6 mice per group). The day of this transplantation was designated as Day 0. On Day 1, a shaved area (25 mm×15 mm) of the abdomen of the mice was immunized with 0.6 ml of a solution of 6% picryl chloride in ethanol which had been absorbed to a mass of cut absorbent cotton (20 mm×20 mm×2 mm in size). On Day 8, the thickness of the auricles of both ears was measured with a dial gauge to obtain a baseline value (a). Then, both auricles were elicited for the D.T.H. response with a solution of 1% picryl chloride in olive oil which had been absorbed to a mass of cut absorbent cotton (10 mm×4 mm×1 mm in size). On Day 9, the swelling degree on the elicited auricles was measured with a dial gauge to obtain a value (b). The baseline value (a) was subtracted from the value (b) to determine an increase in the thickness of the auricles (b-a) in the control group of mice (c).
# Separately, 0.5, 0.05 or 0.005 mg/kg of the test compound dissolved in physiological saline was orally administered to another group of CDF1 mise 6 times/day for consecutive days of from Day 1 to Day 8 inclusive, and then the picryl chloride elicitation was carried out with the treated group of mice in the same way as in the control group of mice. The increase in the thickness of both auricles (b'-a') in this treated group of mice (T) was determined in the same way as the control group of mice.
# The rate (T/C, %) of the increased thickness of auricles of the treated group (T) in term of that for the control group (c) was calculated from the following equation [formula]
# Assumed that the value for the control group was evaluated to be 100%, the activity of the test compound to potentiate cell-mediated immunity was estimated.
# aminopeptidase B = target: T1, aminopeptidase B (Rattus norvegicus, UniProt O09175); assay: Inhibition of aminopeptidase B (arginine-β-naphthylamide degradation, modified Hoppusu method); format: biochemical
# T1 construct: an aminopeptidase B which had been purified with DEAE-Cellulose; from tissue
# T1 sequence (O09175 1-650): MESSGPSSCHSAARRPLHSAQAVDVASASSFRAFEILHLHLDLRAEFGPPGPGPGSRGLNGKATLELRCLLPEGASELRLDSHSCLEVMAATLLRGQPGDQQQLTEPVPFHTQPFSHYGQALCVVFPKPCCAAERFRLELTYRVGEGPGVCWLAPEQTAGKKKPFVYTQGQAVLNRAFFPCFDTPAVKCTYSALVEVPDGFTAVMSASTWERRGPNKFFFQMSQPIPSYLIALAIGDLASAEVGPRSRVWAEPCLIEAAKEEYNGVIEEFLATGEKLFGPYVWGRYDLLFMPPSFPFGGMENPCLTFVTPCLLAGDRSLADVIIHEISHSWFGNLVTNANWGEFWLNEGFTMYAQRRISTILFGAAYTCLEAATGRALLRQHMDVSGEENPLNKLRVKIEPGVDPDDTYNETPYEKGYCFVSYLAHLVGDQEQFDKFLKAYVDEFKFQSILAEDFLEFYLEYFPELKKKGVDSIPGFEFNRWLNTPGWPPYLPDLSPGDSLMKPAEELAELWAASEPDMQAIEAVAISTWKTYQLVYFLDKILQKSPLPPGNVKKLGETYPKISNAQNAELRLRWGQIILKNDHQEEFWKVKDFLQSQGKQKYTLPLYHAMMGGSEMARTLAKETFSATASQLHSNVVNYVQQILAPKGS
# Experimental: Tracing of arphamenine which was made during the course of cultivation of the arphamenine-producing strain, as well as during the course of recovery and purification of arphamenine was conducted by determining the anti-aminopeptidase B potency of arphamenine according to the following methods.
# In detail, 0.5 ml of 0.1 M tris-hydrochloride buffer solution (pH 7.0) and 0.25 ml of a solution containing an arphamenine specimen were added to 0.25 ml of a substrate solution containing 0.002 M arginine-β-naphthylamide. The mixed solution so obtained was heated at 37° C. for 3 minutes. To the heated solution was added 5 μl of a solution of an aminopeptidase B which had been purified with DEAE-Cellulose according to the enzyme-purification technique of Hoppusu et al. The resulting mixture was reacted for 30 minutes at 37° C., and the resultant reaction mixture was admixed with 1 ml of 1.0 M acetate buffer solution (pH 4.2) containing Fast Garnet GBC (o-aminoazotoluene, diazonium salt) at a concentration of 1 mg/ml and a surfactant "Tween" 20 at a concentration of 10% to stop the enzyme reaction. After allowing the resulting mixture to stand at ambient temperature for 15 minutes, absorbance (a) at 525 nm of the reaction solution was measured. On the other hand, adsorbance (b) at 525 nm of a control reaction solution obtained from the blank test using the buffer solution containing no arphamenine was measured. Percent of inhibition to the aminopeptidase B was calculated from the equation [(b-a)/b]×100.
# [2] = test system: cell-mediated immunity (D.T.H. to SRBC); assay: D.T.H. to SRBC in tumor-bearing (Sarcoma 180) mice, Test Example 2 (1); format: in vivo, CDF1 mice; settings: for Increased thickness of footpad / T/C (%): 4 days; for T/C (%): control = 100; for cell-mediated immunity depressed by the tumor (in words): tumor-bearing
# Experimental: The swelling degree on the footpad in mice was evaluated in the same way as in Test Example 1, except that the CDF1 mice employed for the test previously received an intraperitoneal inoculation of 10^6 Sarcoma 180 cells, and that arphamenine A was administered intraperitoneally once daily for 4 consecutive days, including the day of inoculation of SRBC, and two days after the administration, SRBC was given to the treated mice to elicit D.T.H. response.
# mice = assay: Acute toxicity tests in mice by intravenous injection; format: in vivo
# Experimental: Acute toxicity tests in mice by intravenous injection have shown that no deaths are caused by arphamenine A in an iv. dose of 250 mg/kg or by arphamenine B in an iv. dose of 150 mg/kg. […] These new compounds are therefore useful as immunopotentiators and anti-tumor immunomodulators or as adjuvants to various chemotherapeutic agents for use in the treatment of carcinomas.
# Ehrlich Solid Tumor = assay: Anti-tumor activity against Ehrlich Solid Tumor, Test Example 3; format: in vivo, ddY mice; settings: for Average size of tumor / Average weight of tumor / TIR (%), tumor size / TIR (%), tumor weight: 7 times on alternate days, day 30; for host-mediated anti-tumor effect (in words): summary statement
# Experimental: Anti-tumor activity of arphamenine against Ehrlich Solid Tumor.
# 3×10^6 cells of Ehrlich ascites tumor were transplanted subcutaneously into the flank of ddY mice (8-week old, female, 5 mice per group). The day of this transplantation was designated as Day 0. Then, 0.5, 0.05 or 0.005 mg/kg of the test compound dissolved in physiological saline solution was orally administered to the mice a total of 7 times on alternate days until Day 15, beginning on Day 1. On day 30, the size (shorter diameter^2 ×longer diameter/2) of tumor and the weight of tumor were measured. The results in this treated group of mice were compared with those in the control group of mice to calculate tumor inhibition rate (TIR, %) according to the following equation: [formula] where C denotes the size or weight of tumor in the control group, and T denotes the size or weight of tumor in the treated group.
# [3] = test system: cell-mediated immunity (D.T.H. response to sheep red blood cells); assay: Delayed Type Hypersensitivity (D.T.H.) to SRBC in normal mice, Test Example 1; settings: for Increased thickness of footpad / T/C (%): single oral dose; for T/C (%): control = 100
# Experimental: Effect of arphamenine on cell-mediated immunity in normal mice.
# Effect of arphamenines A and B on the cell-mediated immunity was tested according to a known Delayed Type Hypersensitivity (D.T.H.) technique (see P. H. Lagrange, G. B. Mackaness and T. E. Miller: "J. Exp. Med.", 139, 1529~1539 (1974)) using mice immunized with sheep red blood cells (SRBC) as the antigen inoculated to the foot-pad pad of the mice.
# Thus, 10^8 SRBC suspended in 0.05 ml of physiological saline was inoculated by subcutaneous injection to the one side of hind footpad of CDF1 mice (5 mice per group, female, 8-weeks old) to make immunization. At the time of this immunization, an aqueous solution containing 5 mg/kg, 0.5 mg/kg, 0.05 mg/kg or 0.005 mg/kg of arphamenine A or B was administered orally at a single dose to each test mice. 4 Days after the immunization, 10^8 SRBC in 0.05 ml of physiological saline was injected subcutaneously into the other side of the hind footpad of the test mice for elicitation of D.T.H. response. 24 Hours after the eliciting injection, the thickness (in mm) of the hind footpad having received the eliciting injection of SRBC was measured with calipers. At the same time, the thickness of the other side of footpad which had not received the eliciting injection of SRBC was also measured in each mouse.
# The increase of footpad thickness (the swelling degree) was calculated by the following equation: [formula]
# The effect of arphamenine on the DTH response was evaluated by the following equation: [formula]
# Therefore, the assumption was here that the value for the control mice (untreated) was evaluated to be 100%.
# [4] = crude powder after CM-Sephadex C-25, Example 3, read-out: anti-aminopeptidase B potency, IC50 (converted)
# [5] = light yellow powder after Biogel P-2, Examples 8 and 9, read-out: anti-aminopeptidase B potency (IC50) (converted)
# [6] = Table 3, fourth line, 0.005 mg/kg intraperitoneally once daily
# [7] = Table 3, third line, 0.005 mg/kg (so in the source) intraperitoneally once daily
# [8] = Table 3, 0.5 mg/kg intraperitoneally once daily
# [9] = Table 3, 5 mg/kg intraperitoneally once daily
# [10] = 0.05 mg/kg orally, **P < 0.05 (Ttest)
# [11] = 0.05 mg/kg orally, *P < 0.1 (Ttest)
smiles,measurement,setting,value
N=C(N)NCCCC(N)C(=O)CC(Cc1ccccc1)C(=O)O (centres unmarked) [Arphamenine A],activity to enhance cell-mediated immunity (in words),[1]; 0.05 mg/kg,a significant activity to enhance cell-mediated immunity was obtained
same,Increased thickness of auricles,[1]; 0.005 mg/kg orally,6.40 ± 0.63 × 0.1 mm
same,T/C (%),[1]; 0.005 mg/kg orally,143.8%
same,Increased thickness of auricles,"[1]; 0.05 mg/kg orally, *P <0.05",7.40 ± 0.72 × 0.1 mm
same,T/C (%),[1]; 0.05 mg/kg orally,166.3%
same,Increased thickness of auricles,[1]; 0.5 mg/kg orally,6.05 ± 0.97 × 0.1 mm
same,T/C (%),[1]; 0.5 mg/kg orally,136.0%
same,IC50,"aminopeptidase B; colorless, pure powder, Examples 4 and 5, read-out: anti-aminopeptidase B potency, IC50 (converted)",16.9 nM
same,IC50,"aminopeptidase B; colorless, pure product, pH 7.0, 37° C., 30 minutes, read-out: IC50, dose giving 50% inhibition to the aminopeptidase B (converted)",15.6 nM
same,IC50,aminopeptidase B; [4],20.3 nM
same,IC50,aminopeptidase B; [5],93.6 nM
same,Increased thickness of footpad,[2]; [6],5.9 ± 0.79 × 0.1 mm
same,T/C (%),[2]; [6],131%
same,Increased thickness of footpad,[2]; [7],6.5 ± 1.29 × 0.1 mm
same,T/C (%),[2]; [7],144%
same,Increased thickness of footpad,[2]; [8],6.7 ± 1.03 × 0.1 mm
same,T/C (%),[2]; [8],149%
same,Increased thickness of footpad,[2]; [9],5.8 ± 1.19 × 0.1 mm
same,T/C (%),[2]; [9],129%
same,cell-mediated immunity depressed by the tumor (in words),[2],modulate the cell-mediated immunity depressed by the tumor
same,"deaths, acute toxicity",mice; iv. dose of 250 mg/kg,no deaths
same,Average size of tumor,Ehrlich Solid Tumor; 0.005 mg/kg orally,2378 ± 3138 mm^3
same,Average weight of tumor,Ehrlich Solid Tumor; 0.005 mg/kg orally,1.62 ± 1.44 g
same,"TIR (%), tumor size",Ehrlich Solid Tumor; 0.005 mg/kg orally,55.2%
same,"TIR (%), tumor weight",Ehrlich Solid Tumor; 0.005 mg/kg orally,39.3%
same,"TIR (%), tumor size",Ehrlich Solid Tumor; 0.05 mg/kg orally,41.2%
same,"TIR (%), tumor weight",Ehrlich Solid Tumor; 0.05 mg/kg orally,37.8%
same,Average weight of tumor,Ehrlich Solid Tumor; [10],1.66 ± 1.50 g
same,Average size of tumor,Ehrlich Solid Tumor; [11],3120 ± 3584 mm^3
same,Average size of tumor,Ehrlich Solid Tumor; 0.5 mg/kg orally,4467 ± 4311 mm^3
same,Average weight of tumor,Ehrlich Solid Tumor; 0.5 mg/kg orally,2.62 ± 1.90 g
same,"TIR (%), tumor size",Ehrlich Solid Tumor; 0.5 mg/kg orally,15.8%
same,"TIR (%), tumor weight",Ehrlich Solid Tumor; 0.5 mg/kg orally,1.9%
same,host-mediated anti-tumor effect in terms of tumor size and tumor weight (in words),Ehrlich Solid Tumor; 0.05 and 0.005 mg/kg,produced a host-mediated anti-tumor effect
same,host-mediated anti-tumor effect (in words),Ehrlich Solid Tumor,exhibit a host-mediated anti-tumor effect
same,Increased thickness of footpad,"[3]; Table 1, 0.005 mg/kg",11.9 ± 1.00 × 0.1 mm
same,T/C (%),"[3]; Table 1, 0.005 mg/kg",143%
same,Increased thickness of footpad,"[3]; Table 1, 0.05 mg/kg",13.0 ± 0.97 × 0.1 mm
same,T/C (%),"[3]; Table 1, 0.05 mg/kg",157%
same,Increased thickness of footpad,"[3]; Table 1, 0.5 mg/kg",11.5 ± 1.29 × 0.1 mm
same,T/C (%),"[3]; Table 1, 0.5 mg/kg",139%
same,Increased thickness of footpad,"[3]; Table 1, 5 mg/kg",10.4 ± 0.77 × 0.1 mm
same,T/C (%),"[3]; Table 1, 5 mg/kg",125%
same,cell-mediated immunity in normal animals (in words),[3],potentiate the cell-mediated immunity in normal animals
"CC(C)C[C@H](NC(=O)[C@@H](O)[C@H](N)Cc1ccccc1)C(=O)O [Bestatin, reference compound]",Increased thickness of footpad,[2]; [9],6.0 ± 0.96 × 0.1 mm
same,T/C (%),[2]; [9],133%
same,"TIR (%), tumor size",Ehrlich Solid Tumor; 0.05 mg/kg orally,60.6%
same,"TIR (%), tumor weight",Ehrlich Solid Tumor; 0.05 mg/kg orally,44.9%
same,Average weight of tumor,Ehrlich Solid Tumor; [10],1.47 ± 0.92 g
same,Average size of tumor,Ehrlich Solid Tumor; [11],2089 ± 1946 mm^3
same,Increased thickness of footpad,"[3]; Table 1, 0.5 mg/kg",12.5 ± 1.24 × 0.1 mm
same,T/C (%),"[3]; Table 1, 0.5 mg/kg",151%
same,Increased thickness of footpad,"[3]; Table 2, 0.5 mg/kg",13.0 ± 1.13 × 0.1 mm
same,T/C (%),"[3]; Table 2, 0.5 mg/kg",149%
N=C(N)NCCCC(N)C(=O)CC(Cc1ccc(O)cc1)C(=O)O (centres unmarked) [Arphamenine B],IC50,aminopeptidase B; [4],6.84 nM
same,IC50,aminopeptidase B; [5],56.5 nM
same,cell-mediated immunity depressed by the tumor (in words),[2],modulate the cell-mediated immunity depressed by the tumor
same,"deaths, acute toxicity",mice; iv. dose of 150 mg/kg,no deaths
same,host-mediated anti-tumor effect (in words),Ehrlich Solid Tumor,exhibit a host-mediated anti-tumor effect
same,Increased thickness of footpad,"[3]; Table 2, 0.005 mg/kg",12.4 ± 1.40 × 0.1 mm
same,T/C (%),"[3]; Table 2, 0.005 mg/kg",143%
same,Increased thickness of footpad,"[3]; Table 2, 0.05 mg/kg",14.0 ± 1.33 × 0.1 mm
same,T/C (%),"[3]; Table 2, 0.05 mg/kg",161%
same,Increased thickness of footpad,"[3]; Table 2, 0.5 mg/kg",14.7 ± 1.74 × 0.1 mm
same,T/C (%),"[3]; Table 2, 0.5 mg/kg",169%
same,Increased thickness of footpad,"[3]; Table 2, 5 mg/kg",13.7 ± 1.77 × 0.1 mm
same,T/C (%),"[3]; Table 2, 5 mg/kg",157%
same,cell-mediated immunity in normal animals (in words),[3],potentiate the cell-mediated immunity in normal animals
